In patent US20230416330A1, “Optimized GIP Peptide Analogues” (Antag Therapeutics ApS, priority 2019, published 2023):
Starred links: 1 amine or outer side, 2 acyl side, 3 side chain; linkers in the order of their positions; H or OH if unused. Non-standard residues stand in square brackets, D forms with d. Residues, ends and D or L forms follow the SMILES beside them. Groups on a side chain read outwards from the residue. *: point of attachment. C18 diacid = O=C(O)CCCCCCCCCCCCCCCCC(=O)*; C16 diacid = O=C(O)CCCCCCCCCCCCCCC(=O)*; γGlu = O=C(O)[C@H](CCC(=O)[*:2])N[*:1]; Glutaryl = O=C(CCCC(=O)[*:2])[*:1]; Nle = CCCC[C@H](N)C(=O)O; AEEA = NCCOCCOCC(=O)O; Aib = CC(C)(N)C(=O)O

Legend:
[1] = Solubility by visual inspection of peptide solutions; type: physicochemical
In short: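 Peptides dissolved at 1, 5, 7.5 or 15 mg/ml in 50 mM sodium phosphate pH 7.4 or water adjusted to pH 7.4 with NaOH, with gentle mixing. Immediate solubility judged visually as a clear, colorless solution.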

human GIP receptor = biological target: T1, human GIP receptor (Homo sapiens, UniProt P48546); assay: cAMP assay Alternative 1 (CisBio assay), GIPR antagonism; type: cell-based; conditions: for cAMP antagonism % inhib: Table 2B, % inhibition of Emax
T1 construct: host or cells: HEK-293 cells, transient transfection (Lipofectamine 2000), cDNA in pCMV-Script vector
T1 sequence (P48546 22-466): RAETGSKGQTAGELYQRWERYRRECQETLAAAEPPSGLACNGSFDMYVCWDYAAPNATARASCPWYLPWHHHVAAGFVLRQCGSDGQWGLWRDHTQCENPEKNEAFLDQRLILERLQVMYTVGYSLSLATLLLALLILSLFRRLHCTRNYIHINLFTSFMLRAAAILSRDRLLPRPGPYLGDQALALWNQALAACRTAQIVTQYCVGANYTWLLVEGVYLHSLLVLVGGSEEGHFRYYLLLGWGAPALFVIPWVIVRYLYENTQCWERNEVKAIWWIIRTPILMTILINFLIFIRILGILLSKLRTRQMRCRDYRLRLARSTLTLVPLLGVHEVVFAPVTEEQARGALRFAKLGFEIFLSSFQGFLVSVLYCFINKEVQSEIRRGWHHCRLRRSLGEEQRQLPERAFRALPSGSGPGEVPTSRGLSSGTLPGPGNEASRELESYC
In short: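 HEK293 cells transiently transfected with hGIPR, compounds diluted in HBSS/HEPES/pluronic/casein with 500 uM IBMX; decrease in intracellular cAMP read by HTRF (665/620 nm) and converted via cAMP standard curve. pIC50 from four-parameter fit; agonism tested separately after 30 min at 37° C.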

[2] = Physical stability: fibril formation in Thioflavin T (ThT) assay with agitation; type: physicochemical; conditions: 25° C., agitation
In short: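 Peptides at 1, 5, 7.5 or 15 mg/ml in 50 mM sodium phosphate pH 7.4 or in water adjusted to pH 7.4 with NaOH, filtered 0.22 μm, with ThT added. Wells held a 3 mm silica bead under 300 rpm orbital agitation at 25° C. Emission at 486 nm tracked continuously; lag time = 10% of transition above baseline.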

Structure (SMILES)	Visual appearance ([1]; 1 mg/ml, TFA, Phosphate (7.4))	IC50 (human GIP receptor) [nM]	cAMP antagonism % inhib (human GIP receptor) [%]	Avr lag time ([2]; 1 mg/ml, Na, MilliQ (8)) [h]	Avr lag time ([2]; 1 mg/ml, TFA, Phosphate (7.4)) [h]	Avr lag time (h) ([2]; 1 mg/ml, TFA, Phosphate (7.4))	Visual appearance ([1]; 5 mg/ml, Na, MilliQ (8))	Visual appearance ([1]; 7.5 mg/ml, Na, MilliQ (8))	Visual appearance ([1]; 15 mg/ml, Na, MilliQ (8))	Avr lag time (h) ([2]; 5 mg/ml, Na, MilliQ (8))	Avr lag time (h) ([2]; 7.5 mg/ml, Na, MilliQ (8))	Avr lag time (h) ([2]; 15 mg/ml, Na, MilliQ (8))	Visual appearance ([1]; 1 mg/ml, CI, MilliQ (7.9))	cAMP antagonism pIC50 (human GIP receptor; Table 2A, HEK-293 cells transiently expressing hGIPR, agonist GIP1-42 at EC50)	Avr lag time ([2]; 5 mg/ml, TFA, MilliQ) [h]
CC[C@H](C)[C@H](NC(=O)[C@H](CO)NC(=O)[C@H](Cc1ccc(O)cc1)NC(=O)[C@H](CC(=O)O)NC(=O)[C@H](CO)NC(=O)[C@@H](NC(=O)[C@H](Cc1ccccc1)NC(=O)[C@@H](NC(=O)CNC(=O)CCCC(=O)O)[C@@H](C)O)[C@@H](C)CC)C(=O)N[C@@H](C)C(=O)N[C@@H](CCSC)C(=O)N[C@@H](CC(=O)O)C(=O)N[C@@H](CCCCN)C(=O)N[C@H](C(=O)N[C@@H](CCCCNC(=O)CCCCCCCCCCCCCCC(=O)O)C(=O)N[C@@H](CCC(N)=O)C(=O)N[C@@H](CCC(N)=O)C(=O)N[C@@H](CC(=O)O)C(=O)N[C@@H](Cc1ccccc1)C(=O)N[C@H](C(=O)N[C@@H](CC(N)=O)C(=O)N[C@@H](Cc1c[nH]c2ccccc12)C(=O)N[C@@H](CC(C)C)C(=O)N[C@@H](CC(C)C)C(=O)N[C@@H](C)C(=O)N[C@@H](CCC(N)=O)C(=O)N[C@@H](CCCCN)C(=O)N1CCC[C@H]1C(=O)N[C@@H](CO)C(=O)N[C@@H](CO)C(=O)NCC(=O)N[C@@H](C)C(=O)N1CCC[C@H]1C(=O)N1CCC[C@H]1C(=O)N1CCC[C@H]1C(=O)N[C@@H](CO)C(=O)O)C(C)C)[C@@H](C)CC [AT677] (Glutaryl-GTFISDYSIAMDKIK(C16 diacid)QQDFVNWLLAQKPSSGAPPPS-OH)	Clear	0.447	93	<24	16.5 ± 2.3	–	–	–	–	–	–	–	–	–	–
CCCC[C@H](NC(=O)[C@H](C)NC(=O)[C@@H](NC(=O)[C@H](CO)NC(=O)[C@H](Cc1ccc(O)cc1)NC(=O)[C@H](CCC(=O)O)NC(=O)[C@H](CO)NC(=O)[C@@H](NC(=O)[C@H](Cc1ccccc1)NC(=O)[C@@H](NC(=O)CNC(=O)[C@@H](N)CCC(=O)O)[C@@H](C)O)[C@@H](C)CC)[C@@H](C)CC)C(=O)N[C@@H](CCC(=O)O)C(=O)N[C@@H](CCCCN)C(=O)N[C@H](C(=O)N[C@@H](CCCCNC(=O)COCCOCCNC(=O)COCCOCCNC(=O)CC[C@H](NC(=O)CCCCCCCCCCCCCCCCC(=O)O)C(=O)O)C(=O)N[C@@H](CCC(N)=O)C(=O)N[C@@H](CCC(N)=O)C(=O)N[C@@H](CCC(=O)O)C(=O)N[C@@H](Cc1ccccc1)C(=O)N[C@H](C(=O)N[C@@H](CCC(=O)O)C(=O)N[C@@H](Cc1c[nH]c2ccccc12)C(=O)N[C@@H](CC(C)C)C(=O)N[C@@H](CC(C)C)C(=O)N[C@@H](C)C(=O)N[C@@H](CCC(N)=O)C(=O)N[C@@H](CCCCN)C(=O)N1CCC[C@H]1C(=O)N[C@@H](CO)C(=O)N[C@@H](CO)C(=O)NCC(=O)N[C@@H](C)C(=O)N1CCC[C@H]1C(=O)N1CCC[C@H]1C(=O)N1CCC[C@H]1C(=O)N[C@@H](CO)C(=O)O)C(C)C)[C@@H](C)CC [AT694] (H-EGTFISEYSIA[Nle]EKIK([AEEA-AEEA-γGlu-C18 diacid])QQEFVEWLLAQKPSSGAPPPS-OH; N-terminus assumed)	Clear	–	88	–	–	fnd (Fnd = fibrils not detected within experiment time (96 hours) with agitation.)	–	–	–	–	–	–	–	–	–
CC[C@H](C)[C@H](NC(=O)[C@H](CCCCN)NC(=O)[C@H](CCC(=O)O)NC(=O)[C@H](CC(C)C)NC(=O)C(C)(C)NC(=O)[C@@H](NC(=O)[C@H](CO)NC(=O)[C@H](Cc1ccc(O)cc1)NC(=O)[C@H](CCC(=O)O)NC(=O)[C@H](CO)NC(=O)[C@@H](NC(=O)[C@H](Cc1ccccc1)NC(=O)[C@@H](NC(=O)CNC(=O)[C@@H](N)CCC(=O)O)[C@@H](C)O)[C@@H](C)CC)[C@@H](C)CC)C(=O)N[C@@H](CCCCNC(=O)CCCCCCCCCCCCCCC(=O)O)C(=O)N[C@@H](CCC(N)=O)C(=O)N[C@@H](CCC(N)=O)C(=O)N[C@@H](CCC(=O)O)C(=O)N[C@@H](Cc1ccccc1)C(=O)N[C@H](C(=O)N[C@@H](CCC(=O)O)C(=O)N[C@@H](Cc1c[nH]c2ccccc12)C(=O)N[C@@H](CC(C)C)C(=O)N[C@@H](CC(C)C)C(=O)N[C@@H](C)C(=O)N[C@@H](CCC(N)=O)C(=O)N[C@@H](CCCCN)C(=O)N1CCC[C@H]1C(=O)N[C@@H](CO)C(=O)N[C@@H](CO)C(=O)NCC(=O)N[C@@H](C)C(=O)N1CCC[C@H]1C(=O)N1CCC[C@H]1C(=O)N1CCC[C@H]1C(=O)N[C@@H](CO)C(=O)O)C(C)C [AT673] (H-EGTFISEYSI[Aib]LEKIK(C16 diacid)QQEFVEWLLAQKPSSGAPPPS-OH; N-terminus assumed)	Clear	–	94	–	–	fnd (Fnd = fibrils not detected within experiment time (96 hours) with agitation.)	Clear	Clear	Clear	fnd (Fnd = fibrils not detected within experiment time (96 hours) with agitation.)	fnd (Fnd = fibrils not detected within experiment time (96 hours) with agitation.)	fnd (Fnd = fibrils not detected within experiment time (96 hours) with agitation.)	–	–	–
CC[C@H](C)[C@H](NC(=O)[C@H](CO)NC(=O)[C@H](Cc1ccc(O)cc1)NC(=O)[C@H](CC(=O)O)NC(=O)[C@H](CO)NC(=O)[C@@H](NC(=O)[C@H](Cc1ccccc1)NC(=O)[C@@H](NC(=O)CNC(=O)[C@@H](N)CCC(=O)O)[C@@H](C)O)[C@@H](C)CC)C(=O)N[C@@H](C)C(=O)N[C@@H](CCSC)C(=O)N[C@@H](CC(=O)O)C(=O)N[C@@H](CCCCN)C(=O)N[C@H](C(=O)N[C@@H](CCCCNC(=O)CCCCCCCCCCCCCCC(=O)O)C(=O)N[C@@H](CCC(N)=O)C(=O)N[C@@H](CCC(N)=O)C(=O)N[C@@H](CC(=O)O)C(=O)N[C@@H](Cc1ccccc1)C(=O)N[C@H](C(=O)N[C@@H](CC(N)=O)C(=O)N[C@@H](Cc1c[nH]c2ccccc12)C(=O)N[C@@H](CC(C)C)C(=O)N[C@@H](CC(C)C)C(=O)N[C@@H](C)C(=O)N[C@@H](CCC(N)=O)C(=O)N[C@@H](CCCCN)C(N)=O)C(C)C)[C@@H](C)CC [AT158, reference compound] (H-EGTFISDYSIAMDKIK(C16 diacid)QQDFVNWLLAQK-NH2; N-terminus assumed)	–	–	–	–	<18	–	–	–	–	–	–	–	Turbid and Hazy	7.8	<18
CCCC[C@H](NC(=O)C(C)(C)NC(=O)[C@@H](NC(=O)[C@H](CO)NC(=O)[C@H](Cc1ccc(O)cc1)NC(=O)[C@H](CCC(=O)O)NC(=O)[C@H](CO)NC(=O)[C@@H](NC(=O)[C@H](Cc1ccccc1)NC(=O)[C@@H](NC(=O)CNC(=O)[C@@H](N)CCC(=O)O)[C@@H](C)O)[C@@H](C)CC)[C@@H](C)CC)C(=O)N[C@@H](CCC(=O)O)C(=O)N[C@@H](CCCCN)C(=O)N[C@H](C(=O)N[C@@H](CCCCNC(=O)COCCOCCNC(=O)COCCOCCNC(=O)CC[C@H](NC(=O)CCCCCCCCCCCCCCCCC(=O)O)C(=O)O)C(=O)N[C@@H](CCC(N)=O)C(=O)N[C@@H](CCC(N)=O)C(=O)N[C@@H](CCC(=O)O)C(=O)N[C@@H](Cc1ccccc1)C(=O)N[C@H](C(=O)N[C@@H](CCC(=O)O)C(=O)N[C@@H](Cc1c[nH]c2ccccc12)C(=O)N[C@@H](CC(C)C)C(=O)N[C@@H](CC(C)C)C(=O)N[C@@H](C)C(=O)N[C@@H](CCC(N)=O)C(=O)N[C@@H](CCCCN)C(=O)N1CCC[C@H]1C(=O)N[C@@H](CO)C(=O)N[C@@H](CO)C(=O)NCC(=O)N[C@@H](C)C(=O)N1CCC[C@H]1C(=O)N1CCC[C@H]1C(=O)N1CCC[C@H]1C(=O)N[C@@H](CO)C(=O)O)C(C)C)[C@@H](C)CC [AT696] (H-EGTFISEYSI[Aib][Nle]EKIK([AEEA-AEEA-γGlu-C18 diacid])QQEFVEWLLAQKPSSGAPPPS-OH; N-terminus assumed)	Clear	–	97	–	–	fnd (Fnd = fibrils not detected within experiment time (96 hours) with agitation.)	Clear	Clear	Clear	fnd (Fnd = fibrils not detected within experiment time (96 hours) with agitation.)	fnd (Fnd = fibrils not detected within experiment time (96 hours) with agitation.)	fnd (Fnd = fibrils not detected within experiment time (96 hours) with agitation.)	–	–	–
